Target: PtmO8 (Streptomyces platensis, UniProt A0A0A0UVL0)
Assay: steady-state enzyme kinetics
Type: biochemical

NC(=O)c1ccc[n+]([C@@H]2O[C@H](COP(=O)([O-])OP(=O)(O)OC[C@H]3O[C@@H](n4cnc5c(N)ncnc54)[C@H](O)[C@@H]3O)[C@@H](O)[C@H]2O)c1 [NAD^+]
Km: 34.2 ± 3.6 µM

Source: PMC6545883 (Journal of the American Chemical Society, 2019)
